The target of this experiment is ClpP1P2 (Mycobacterium tuberculosis (strain ATCC 25618 / H37Rv), UniProt P9WPC3+P9WPC5). In words: in vitro assay to detect presence of AMC directly proportional to the activity of ClpP1P2. GHDDI collaboration. Format: functional.

106 compounds from ChEMBL document CHEMBL3988442, “University of Dundee, Small-Polar-MMV Screening Library” (2021) can be followed below.

Sequence of ClpP1P2 (P9WPC5 whole entry): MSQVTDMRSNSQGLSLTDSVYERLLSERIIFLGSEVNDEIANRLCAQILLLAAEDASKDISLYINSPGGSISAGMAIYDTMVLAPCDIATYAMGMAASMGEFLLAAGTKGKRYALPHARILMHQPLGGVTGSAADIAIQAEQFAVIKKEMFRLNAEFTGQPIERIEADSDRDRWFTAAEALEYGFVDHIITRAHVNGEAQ
Sequence of ClpP1P2 (P9WPC3 whole entry): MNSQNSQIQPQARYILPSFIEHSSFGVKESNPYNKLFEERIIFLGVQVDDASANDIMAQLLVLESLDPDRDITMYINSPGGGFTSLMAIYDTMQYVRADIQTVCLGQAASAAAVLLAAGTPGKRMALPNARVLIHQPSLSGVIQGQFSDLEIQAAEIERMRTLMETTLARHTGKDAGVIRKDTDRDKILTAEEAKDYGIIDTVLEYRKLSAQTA

Broadly, the IC50 is the concentration that gives 50% inhibition. Turning to `CCOCCCNCc1cc2c(C)cc(C)cc2n2c(=O)n(C)nc12`, the IC50 is above 100 µM.
For `O=S(=O)(c1ccccc1)N1CCOCC(Cc2cccnc2)C1` (stereo unspecified), the IC50 is above 100 µM.
In the case of `Cc1nn(C)c(C)c1C(=O)NCc1cc(N(C)C)nc2ccccc12` it was above 100 µM.
To `Cc1nc(CN(C)C2CCN(Cc3nc4ccccc4n3C)C2)no1` (stereo unspecified) belongs above 100 µM; to `Cc1nc2ccccc2nc1NCc1cccc(OCC2CCCO2)c1` (stereo unspecified), above 100 µM.
In the case of `CC(C)c1nc2c(n1C)CCN(CC(=O)Nc1cccnc1)C2` it was above 100 µM; in that of `Cc1cc(NCC(=O)N(C)Cc2cccs2)c(C(N)=O)cc1F`, above 100 µM.
Regarding `CC(c1cccnc1)N(C)Cc1cc2cc3c(cc2[nH]c1=O)OCO3` (stereo unspecified), the IC50 is above 100 µM.
As for `Cc1ccc(S(=O)(=O)N2CCOc3ccccc32)cc1C(N)=O`, the IC50 is above 100 µM.
To `CN(C)c1cc(CNC(=O)Nc2ccc(N3CCCC3)nc2)ccn1` belongs above 100 µM; to `Cc1cc(C)n(-c2cncc(NCCNC(=O)CC3CCCC3)n2)n1`, above 100 µM.
Consider `CC(C)c1nnc(NC(=O)CN2C(=O)c3ccccc3NC2C(C)C)s1` (stereo unspecified), for which the IC50 was above 100 µM.
In the case of `CN(C)c1nc2c(c(NCc3nnc4n3CCCCC4)n1)CCNC2` it was above 100 µM; in that of `Cc1ncc(CN2CCc3nc4cc(C(C)(C)C)nn4c(O)c3C2)n1C`, above 100 µM; in that of `Cc1ncc2c(n1)CN(Cc1nc(Cc3ccccc3)no1)CC2`, above 100 µM.
Turning to `O=C(Nc1cc(CCC2CCN(CCO)CC2)ccn1)c1ccccn1`, the IC50 is above 100 µM.
In the case of `COc1cccc(-c2cc(NCCO)nc3[nH]ccc23)n1` it was above 100 µM; in that of `COc1cccc(-c2cc(NCCN(C)C)nc3[nH]ccc23)n1`, above 100 µM; in that of `Cc1cc(C)n(-c2cncc(NCCNC(=O)C(C)(C)C)n2)n1`, above 100 µM.
As for `Nc1nccnc1C(=O)NC1CCN(Cc2ccccc2)C1` (stereo unspecified), the IC50 was above 100 µM.
On to `COC(=O)N1CCC(Nc2ccc(Cl)c(C#N)n2)CC1`, for which the IC50 is above 100 µM.
Regarding `c1cncc(CN2CCC(c3ccc4c(c3)OCO4)CC2)c1`, the IC50 was above 100 µM.
On to `CSc1nccn1-c1ccc(C(=O)NCC2CC2)cc1`, for which the IC50 was above 100 µM.
In the case of `Cc1csc2ncc(-c3ccnc(N4CCCN(C)CC4)n3)c(=O)n12` it was above 100 µM; in that of `Cc1ccc(C2(O)CCN(C(=O)CCn3ccc(=O)[nH]c3=O)CC2)nc1`, above 100 µM; in that of `O=C(NCc1nn(-c2ccccc2)c2c1CCC2)NCC1COCCO1` (stereo unspecified), above 100 µM.
As for `CNc1cnc(CC2COCCN(Cc3cccc(C)n3)C2)cn1` (stereo unspecified), the IC50 was above 100 µM.
`N#Cc1cc2c(=O)n(CC(O)Cc3ccccc3)ccc2[nH]c1=O` (stereo unspecified): the IC50 is above 100 µM.
In the case of `COc1ncccc1CNC(=O)c1cc(C)on1`, the IC50 was above 100 µM.
Turning to `Cn1c(N)c2c(=O)n(C)c(-c3ccc(Cl)cc3Cl)cc2c(C#N)c1=O`, the IC50 is above 100 µM.
To `Cc1nc(C)n(CC2CN(Cc3cccc4ccccc34)CCO2)n1` (stereo unspecified) belongs above 100 µM.
As for `CCC[C@H]1CN(c2cncc(C(=O)N3CCCCC3)n2)C[C@@H]1N(C)C`, the IC50 is above 100 µM.
Regarding `COc1ncc(NCc2ccc(F)cc2)cc1C(N)=O`, the IC50 was above 100 µM.
In the case of `CCc1nccn1CCC(=O)N1CCCC1c1cncc(NC)n1` (stereo unspecified) it was above 100 µM.
To `COc1cccc(-c2ccnc3nc(N4CCCCC4)[nH]c(=O)c23)c1` belongs above 100 µM; to `Cc1ccc(CN(CC(=O)N2CCOC(C)C2)C2CC2)cc1` (stereo unspecified), above 100 µM; to `O=C(c1cncc(N2CCC(O)(CO)CC2)n1)N1CCCC1`, above 100 µM.
On to `COc1ccc(-c2cnc(N(C)C)nc2C2CNCCO2)cc1` (stereo unspecified), for which the IC50 is above 100 µM.
In the case of `Cc1cccc(-c2cc(-c3c(C)nn(CCO)c3C)c(C#N)c(N)n2)c1` it was above 100 µM; in that of `CCN(CC)S(=O)(=O)c1cc2c3c(c1)c(C)cc(=O)n3CC2`, above 100 µM.
Consider `CC(C)c1nc2oc(C(=O)N3CCOCC3)c(N)c2c2c1CCCC2`, for which the IC50 is above 100 µM.
In the case of `Cc1nc(CN2CCOC(Cn3cccn3)C2)nc2ccccc12` (stereo unspecified), the IC50 is above 100 µM.
To `Cc1c[nH]nc1C1CCCN1Cc1ncc[nH]1` (stereo unspecified) belongs above 100 µM; to `Cn1ccc(-c2cc(C(=O)N3CCC(C(N)=O)CC3)c3ccccn23)n1`, above 100 µM.
On to `COc1cc(CN2CCCCCC2c2cccs2)cc(OC)c1O` (stereo unspecified), for which the IC50 is 16.8 µM.
As to `CN(C)c1ccnc(-c2ccnc3c2ccn3C)n1`, the IC50 was above 100 µM.
Take `CCc1ncc2c(n1)CN(CC(=O)Nc1nncs1)CC2`: the IC50 is above 100 µM.
As to `Cc1nc(NCC2CC2)nc2c1COCC21CCN(C(=O)C(C)(C)C)C1` (stereo unspecified), the IC50 was above 100 µM.
To `CCn1ccnc1CN1CCN(CC(O)c2cccc(F)c2)CC1` (stereo unspecified) belongs above 100 µM.
To `Cc1nc(-c2cc(C(=O)NCCN3CCOCC3)c3ccccn23)cs1` belongs above 100 µM.
To `CCCn1[nH]cc/c1=N\C(=O)CN1CCc2cnc(C(C)C)nc2C1` belongs above 100 µM.
`O=C(NCC(F)(F)F)c1ccc(-c2ccco2)[nH]c1=O`: the IC50 was above 100 µM.
As to `COc1c(C2CCCN2Cc2noc(C)n2)c(C)nn1C` (stereo unspecified), the IC50 was above 100 µM.
For `COCCOc1ccc(CNc2cnc3ccccc3n2)cn1`, the half-maximal inhibitory concentration (IC50) is above 100 µM.
As for `CS(=O)(=O)CC1(CNc2cc(C#N)c3cc(Cl)ccc3n2)CC1`, the IC50 is above 100 µM.
`CCn1nc2c(cc1=O)CN(Cc1nc(C)c(C)o1)CC2`: the IC50 was above 100 µM.
Regarding `COc1cccc(-n2nnc(C(=O)N3CCN(C)CC3C)c2C)c1` (stereo unspecified), the IC50 was above 100 µM.
In the case of `O=C(NCCCn1cncn1)c1ccc(-c2ccco2)[nH]c1=O` it was above 100 µM; in that of `Cc1n[nH]c(C)c1-c1cc(-c2cccc(O)c2)nc(N)c1C#N`, above 100 µM; in that of `Cc1cc2nc(-c3ccccc3)cc(NCC3CCS(=O)(=O)C3)n2n1` (stereo unspecified), above 100 µM.
Take `CN(Cc1noc(C2CC2)n1)C1CCN(Cc2ccccc2C#N)C1` (stereo unspecified): the IC50 is above 100 µM.
With `CCN(CC)C(=O)CN1CCCC1c1nc(C)c2c(n1)N(C)C(=O)CC2` (stereo unspecified), the IC50 was above 100 µM.
For the compound `Cc1cnn(CC(C)Nc2cnc3ccccc3n2)c1` (stereo unspecified), the IC50 is above 100 µM.
Regarding `CNC(=O)c1cnn2c(C3CCCN3)ccnc12` (stereo unspecified), the IC50 was above 100 µM.
Regarding `CC(C)n1cnc(-c2nc(C(=O)NC3CC3)c3ccccn23)c1`, the IC50 was above 100 µM.
In the case of `CC(=O)N1CCC(CCc2ccnc(NC(=O)c3ccccn3)c2)CC1` it was above 100 µM; in that of `O[C@@H]1C[C@H]2CN(Cc3ccccc3Cl)[C@H](Cc3ccccc3)CN2C1`, above 100 µM; in that of `Cc1nn(C)c(C)c1C1CCCN1C(=O)c1nccnc1N` (stereo unspecified), above 100 µM.
In the case of `Cc1cnn(CC2CN(Cc3nc4cccnc4[nH]3)CCO2)c1` (stereo unspecified), the 50% inhibitory concentration (IC50) is above 100 µM.
Regarding `Cc1n[nH]c(C)c1-c1cc(-c2ccc[nH]2)nc(N)c1C#N`, the IC50 was above 100 µM.
Regarding `Cc1nc(-c2nc(C(=O)NC3CC3)c3ccccn23)cn1C(C)C`, the IC50 was above 100 µM.
Regarding `COCCN1CCc2cc(C(=O)NC(C)C)c(NCC3CC3)nc2CC1`, the concentration for half-maximal inhibition (IC50) was above 100 µM.
On to `O=C(O)C1CN(c2cncc(Cc3ccccc3)n2)C1`, for which the IC50 is above 100 µM.
`Cc1nccn1CCCNc1nccnc1C#N`: the IC50 is above 100 µM.
In the case of `CCC(=O)N1CCCN(c2cncc(-n3nc(C)cc3C)n2)CC1`, the IC50 is above 100 µM.
For `CC1Cn2c(nc3c2c(=O)[nH]c(=O)n3C)O1` (stereo unspecified), the IC50 is above 100 µM.
In the case of `CC(C)=CCCC1(C)C=Cc2c(cc(C)n(CCC(=O)O)c2=O)O1` (stereo unspecified) it was above 100 µM; in that of `CNc1cncc(C2CCN(C(=O)c3cnco3)CC2)n1`, above 100 µM.
Consider `CC(C)n1cnc(-c2nc(C(=O)N3CCCC3)c3ccccn23)c1`, for which the IC50 was above 100 µM.
To `c1ccc(Cc2nnc(CN3CCc4cncnc4C3)o2)cc1` belongs above 100 µM; to `CC(=O)N1CCC(c2cncc(N3CCOCC3)n2)CC1`, above 100 µM; to `CC1CCC(NC(=O)CNC2(c3ccc(Br)cc3)CCOCC2)CC1` (stereo unspecified), above 100 µM.
On to `CNCCN1C(=O)CC[C@H]2CN(c3cnc4ccccc4n3)CC[C@H]21`, for which the IC50 is above 100 µM.
To `c1ccc2nc(N3CCCC3c3nnc4n3CCCCC4)cnc2c1` (stereo unspecified) belongs above 100 µM.
Regarding `CN(C)C1CCN(C(=O)c2cc(-c3ccn(C)n3)n3ccccc23)CC1`, the IC50 was above 100 µM.
On to `Cn1cc(-c2nc(CNCCn3cccn3)cs2)cn1`, for which the IC50 is above 100 µM.
To `O=C(NCc1nc2cc(F)ccc2[nH]1)c1ccc[nH]1` belongs above 100 µM.
In the case of `c1ccc(CCCN2CCCC(Nc3cnc4ccccc4n3)C2)cc1` (stereo unspecified) it was above 100 µM; in that of `Cc1cc(C)n(-c2cncc(NCCNC(=O)C3CCCC3)n2)n1`, above 100 µM; in that of `Cc1cnn(CC2CCCN2C(=O)CCc2ccncc2)c1` (stereo unspecified), above 100 µM.
Take `Cc1nnc(C2Cc3ccccc3CN2Cc2c(C)noc2C)o1` (stereo unspecified): the IC50 is above 100 µM.
To `CS(=O)(=O)NC1CCCN(C(=O)c2cccnc2)C1` (stereo unspecified) belongs above 100 µM.
Consider `CCN(CC)c1nc2sc(C(=O)N3CCNC(=O)C3)cc2s1`, for which the IC50 is above 100 µM.
To `Cc1c[nH]nc1C1CCCN1Cc1nccn1C` (stereo unspecified) belongs above 100 µM.
To `CN(C)Cc1cc(C2CCCCN2S(=O)(=O)Cc2ccccc2)nn1C` (stereo unspecified) belongs above 100 µM; to `Cc1cc(C)n(CCNc2ncnc3c2NC(=O)CN3)n1`, above 100 µM; to `CCn1c(C)nnc1CN(C)C1CCN(CCS(=O)(=O)CC)C1` (stereo unspecified), above 100 µM.
On to `CCSCCN1CCCN(S(C)(=O)=O)CC1`, for which the IC50 is above 100 µM.
To `CC(C)c1ncc2c(n1)CN(Cc1nnc(Cc3ccccc3)o1)CC2` belongs above 100 µM; to `CC(C)[C@H](Nc1cc(-c2ccncc2)nc2ccnn12)C(N)=O`, above 100 µM.
With `COc1ccc(-c2ccnc3nc(N4CCCC4)[nH]c(=O)c23)cc1OC`, the IC50 was above 100 µM.
In the case of `CNC(=O)C1CCCN1c1nc(C)c2ccccc2n1` (stereo unspecified) it was above 100 µM; in that of `Cn1c(CN2CCCC(Cn3cncn3)C2)nc2ccccc21` (stereo unspecified), above 100 µM.
With `CCOCC1CN(c2ccncn2)Cc2cnn(CC)c21` (stereo unspecified), the IC50 is above 100 µM.
To `COc1ccc2cc(CN(C)CCc3cn[nH]c3)c(=O)[nH]c2c1` belongs above 100 µM; to `CNC(=O)c1cc2c(nc1NCC1CC1)CCN(CC1CC1)CC2`, above 100 µM.
